From patent US12661353B2, “SPT5 inhibitors and uses thereof” (Yeda Research and Development Co. Ltd., priority 2020, dated 2026)
Entries after “also recorded” stand apart in the source; their conditions may differ. Where two headings read alike, the source gives them in different places.

What was measured:
mutant (Q111) Htt = assay: Htt mRNA levels in Q111 striatal cells, qPCR; for Down-regulating transcription of Mutant Htt (i.e. inhibiting transcription elongation of mutant Htt gene induced by Spt5): key: + represent a statistically significant effect; assay type: cell-based, mouse; conditions: for effect on mutant (Q111) Htt mRNA expression, in words / Down-regulating transcription of Mutant Htt (i.e. inhibiting transcription elongation of mutant Htt gene induced by Spt5): 48 hours; for Down-regulating transcription of Mutant Htt (i.e. inhibiting transcription elongation of mutant Htt gene induced by Spt5): Q111 striatal cells
Experimental: (§1) Cell culture—HEK293T, HeLa, MCF7, Jurkat and mouse embryonic fibroblasts (MEFs) cells were grown and maintained in Dulbecco's modified Eagle's medium supplemented with 10% fetal calf serum (Gibco) and 1% penicillin-streptomycin. To avoid NF-κB activity, HeLa cells were kept from reaching confluence and re-plated no more than 10 times following initial thawing. To induce NF-κB activity, cells were treated with […] recombinant human TNF-α (Peprotech) for the indicated times. STHdh Q111 and STHdh Q7 striatal cell lines (Coriell Institute for Medical Research) were grown in Dulbecco's modified Eagle's medium supplemented with 10% fetal calf serum (Gibco), 1% penicillin-streptomycin and 0.4 mg/ml G418 at 33° C. The cells were re-plated no more than 5-6 times, as recommended.
Huntington's disease (HD) is an inherited genetic disorder caused by expansion trinucleotide CAG repeats (36 and higher) encoding glutamine (Q) in the huntingtin (Htt) gene. Expression of the mutant gene in neurons of the striatum and the frontal cortex leads to degeneration of neuronal cells that control body movements, emotions and intellect. […] To examine the potential effect of SPIs in this context, striatal cell lines established from wild type (Q7) or from mutant (Q111) Htt knock-in mice were used. In these cell lines the coding region of the first exon of the mouse Htt gene was replaced with the same region of human wild type (Q7) or mutant (Q111) Htt, as schematically shown in FIG. 6A. The two cell lines were treated for 48 hours with the identified SPIs and following the levels of Htt mRNA were determined.
The compounds were tested as described in Example 4 hereinabove. In brief, Q111 (or Q7, where indicated) expressing Striatal cells were treated with the tested compound at the indicated concentrations for 48 hours. Then, RNA was extracted and levels of Htt mRNA were determined by qRT-PCR and normalized to β-actin. The data was analysed using GraphPad Prism software.

Spt5 activities = assay: Combined effects on the various Spt5 activities (summary of Examples 1-4); assay type: cell-based
[1] = tested on: pro-inflammatory genes A20, CCL20, IL6, IL8, CXCL2, JUNB and IEX1; assay: mRNA levels of pro-inflammatory genes under basal conditions, HeLa, RT-qPCR; assay type: cell-based, human; conditions: HeLa cells, 2 hours, 50 μM SPI
Experimental: as §1
(§2) RNA analysis—Total RNA was extracted using Tri-reagent (Bio-Lab Chemicals) and Direct-Zol™ RNA MiniPrep kit (Zymo Research). Following, cDNA was synthesized from […] of total RNA using a High-Capacity cDNA Reverse Transcription Kit (ABI, Thermo Fisher Scientific). cDNA samples were analyzed by quantitative PCR (qPCR) in a ViiA 7 Real-Time PCR System using Fast qPCRBIO SYBR Green Mix (PCR Biosystems).
Thus, a subset of Spt5-responsive pro-inflammatory genes from the aforementioned studies and from others (Aida et al., 2006; Fujita et al., 2009), namely A20, CCL20, IL6, IL8, CXCL2, JUNB and IEX1, were selected and the effect of the identified SPIs on their expression under basal conditions and in response to NF-κB activation was tested (FIGS. 2A-C and 3A-C). Specifically, for analyzing expression under basal conditions, Hela cells were treated with vehicle (DMSO) or SPI for 2 hours and following RNA was extracted and analyzed by RT-qPCR.

[2] = tested on: pro-inflammatory genes A20, CCL20, IL6, IL8, CXCL2, JUNB and IEX1; assay: mRNA levels of pro-inflammatory genes under TNFα-induced conditions, HeLa, RT-qPCR; assay type: cell-based, human; conditions: for Down-regulating transcription of pro-inflammatory genes under TNFα induced conditions (i.e. inhibiting transcription elongation of pro-inflammatory genes induced by Spt5): HeLa cells, SPI 1 hour then TNFα 1 hour; for effect on TNFα-induced levels of pro-inflammatory genes, in words: HeLa, SPI (50 μM or less) 1 hour then TNFα 1 hour
Experimental: as §1, §2
In the next step, the effect of the identified SPIs on expression of the selected genes following NF-κB activation was analyzed. Specifically, Hela cells were pre-incubated with DMSO or SPI (50 μM or less) for 1 hour followed by treatment with TNFα for an additional 1 hour.

`O=c1oc2cc(O)ccc2s1` [SPI-09] was tested, and the “effect on mutant (Q111) Htt mRNA expression, in words” value (shortened to “effect on mutant”) (mutant (Q111) Htt) was “diminished mutant Htt expression”, the “Down-regulating transcription of Mutant Htt (i.e. inhibiting transcription elongation of mutant Htt gene induced by Spt5)” value (mutant (Q111) Htt) was “+” and the “classification by effect on the various Spt5 activities, in words” value (from here on “classification by effect”) (Spt5 activities) was “little or no effect on basal and induced pro-inflammatory gene expression”. For the same molecule, the “classification by effect” value (Spt5 activities; listed as SPJ-09) was “a single activity as SPI inhibitors towards inhibiting transcription of Htt gene”.
`N#CC(C#N)=CC=C(Sc1ncc(C(F)(F)F)cc1Cl)c1ccc(Cl)cc1` [SPI-16] was tested, and the “effect on mutant” value (mutant (Q111) Htt) was “did not affect mutant Htt expression”, the “classification by effect” value (Spt5 activities) was “affected the basal and the TNFα-induced pro-inflammatory gene transcription” and the “Up-regulation of pro-inflammatory genes under basal conditions (i.e. inhibiting proximal promoter pausing of pro-inflammatory genes induced by Spt5)” value [1] was “++ (++ >3)”. For the same molecule, the “Down-regulating transcription of pro-inflammatory genes under TNFα induced conditions (i.e. inhibiting transcription elongation of pro-inflammatory genes induced by Spt5)” value [2] was “+++ (+++ represent >80% inhibition)”.
`CN(Cc1cnn(Cc2ccccc2)c1)c1ccc2nnc(-c3ccccc3)n2n1` [SPI-17] was tested, and the “effect on mutant” value (mutant (Q111) Htt) was “did not affect mutant Htt expression”, the “classification by effect” value (Spt5 activities) was “affected the basal and the TNFα-induced pro-inflammatory gene transcription” and the “Up-regulation of pro-inflammatory genes under basal conditions (i.e. inhibiting proximal promoter pausing of pro-inflammatory genes induced by Spt5)” value [1] was “+++ (+++ represent effect >10)”. For the same molecule, the “Down-regulating transcription of pro-inflammatory genes under TNFα induced conditions (i.e. inhibiting transcription elongation of pro-inflammatory genes induced by Spt5)” value [2] was “+++ (+++ represent >80% inhibition)”.
`O=C(/C=C/c1ccc(O)cc1)CC(=O)/C=C/c1ccc(O)cc1` [SPI-29] was tested, and the “Down-regulating transcription of Mutant Htt (i.e. inhibiting transcription elongation of mutant Htt gene induced by Spt5)” value (mutant (Q111) Htt) was “+”, the “classification by effect” value (Spt5 activities) was “affect all the tested Spt5 activities” and the “Up-regulation of pro-inflammatory genes under basal conditions (i.e. inhibiting proximal promoter pausing of pro-inflammatory genes induced by Spt5)” value [1] was “++ (++ >3)”. For the same molecule, the “Down-regulating transcription of pro-inflammatory genes under TNFα induced conditions (i.e. inhibiting transcription elongation of pro-inflammatory genes induced by Spt5)” value [2] was “+++ (+++ represent >80% inhibition)”.
With `CCc1ccccc1NS(=O)(=O)c1ccc(-n2ncc(Cl)c(Cl)c2=O)cc1` [SPI-31] the “effective concentration on mutant Htt lower than the concentration needed to inhibit expression of the pro-inflammatory genes” value (mutant (Q111) Htt) was “about 15 fold”, the “effect on mutant” value (mutant (Q111) Htt) was “efficacy in selectively inhibiting transcription of Htt gene” and the “Down-regulating transcription of Mutant Htt (i.e. inhibiting transcription elongation of mutant Htt gene induced by Spt5)” value (mutant (Q111) Htt) was “+”. The “classification by effect” value (Spt5 activities) was “inhibited mainly the positive activity of Spt5 with little or no effect on proximal promoter pausing; also recorded: a single activity as SPI inhibitors towards inhibiting transcription of Htt gene” and the “Down-regulating transcription of pro-inflammatory genes under TNFα induced conditions (i.e. inhibiting transcription elongation of pro-inflammatory genes induced by Spt5)” value [2] was “+++ (+++ represent >80% inhibition)”.
In the case of `CCN(CC)CCOc1ccc(C(=C(Cl)c2ccccc2)c2ccccc2)cc1` [SPI-42], the “effect on mutant” value (mutant (Q111) Htt) is reported as “did not affect mutant Htt expression”, the “classification by effect” value (Spt5 activities) is reported as “affected the basal and the TNFα-induced pro-inflammatory gene transcription” and the “Up-regulation of pro-inflammatory genes under basal conditions (i.e. inhibiting proximal promoter pausing of pro-inflammatory genes induced by Spt5)” value [1] is reported as “+ (+ >1.6)”. The “Down-regulating transcription of pro-inflammatory genes under TNFα induced conditions (i.e. inhibiting transcription elongation of pro-inflammatory genes induced by Spt5)” value [2] was “++ (++ >65%)” and the “effect on TNFα-induced levels of pro-inflammatory genes, in words” value (shortened to “effect on TNFα-induced levels”) [2] was “affected mainly the genes that were strongly induced by the TNFα treatment”.
With `O=C(O)c1ccc(C=C2CSc3c(F)cccc3C2=O)cc1` [SPI-46] the “effect on mutant” value (mutant (Q111) Htt) was “did not affect mutant Htt expression”, the “classification by effect” value (Spt5 activities) was “affected the basal and the TNFα-induced pro-inflammatory gene transcription” and the “Up-regulation of pro-inflammatory genes under basal conditions (i.e. inhibiting proximal promoter pausing of pro-inflammatory genes induced by Spt5)” value [1] was “+ (+ >1.6)”. For the same molecule, the “Down-regulating transcription of pro-inflammatory genes under TNFα induced conditions (i.e. inhibiting transcription elongation of pro-inflammatory genes induced by Spt5)” value [2] was “+++ (+++ represent >80% inhibition)”.
In the case of `OCc1ccc(-c2ccc(-c3ccc(CO)s3)o2)s1` [SPI-48], the “Down-regulating transcription of Mutant Htt (i.e. inhibiting transcription elongation of mutant Htt gene induced by Spt5)” value (mutant (Q111) Htt) is reported as “+” and the “classification by effect” value (Spt5 activities) is reported as “a single activity as SPI inhibitors towards inhibiting transcription of Htt gene”.
`Cc1ccnc(SC=CC(=O)c2ccccc2)n1` [SPI-57] was tested, and the “effect on mutant” value (mutant (Q111) Htt) was “did not affect mutant Htt expression”, the “classification by effect” value (Spt5 activities) was “affected the basal and the TNFα-induced pro-inflammatory gene transcription” and the “Up-regulation of pro-inflammatory genes under basal conditions (i.e. inhibiting proximal promoter pausing of pro-inflammatory genes induced by Spt5)” value [1] was “+ (+ >1.6)”. The “Down-regulating transcription of pro-inflammatory genes under TNFα induced conditions (i.e. inhibiting transcription elongation of pro-inflammatory genes induced by Spt5)” value [2] was “+++ (+++ represent >80% inhibition)”.
With `O=C(O)c1ccc(C=C2CSc3ccc(F)cc3C2=O)cc1` [SPI-68] the “Down-regulating transcription of Mutant Htt (i.e. inhibiting transcription elongation of mutant Htt gene induced by Spt5)” value (mutant (Q111) Htt) was “+”, the “Up-regulation of pro-inflammatory genes under basal conditions (i.e. inhibiting proximal promoter pausing of pro-inflammatory genes induced by Spt5)” value [1] was “+ (+ >1.6)” and the “Down-regulating transcription of pro-inflammatory genes under TNFα induced conditions (i.e. inhibiting transcription elongation of pro-inflammatory genes induced by Spt5)” value [2] was “++ (++ >65%)”. For the same molecule, the “effect on TNFα-induced levels” value [2] was “affected mainly the genes that were strongly induced by the TNFα treatment”.
In the case of `Nc1ccc2ncnc(NCCc3ccc(Oc4ccccc4)cc3)c2c1` [SPI-74], the “Down-regulating transcription of Mutant Htt (i.e. inhibiting transcription elongation of mutant Htt gene induced by Spt5)” value (mutant (Q111) Htt) is reported as “+”, the “classification by effect” value (Spt5 activities) is reported as “affect all the tested Spt5 activities” and the “Up-regulation of pro-inflammatory genes under basal conditions (i.e. inhibiting proximal promoter pausing of pro-inflammatory genes induced by Spt5)” value [1] is reported as “+ (+ >1.6)”. For the same molecule, the “Down-regulating transcription of pro-inflammatory genes under TNFα induced conditions (i.e. inhibiting transcription elongation of pro-inflammatory genes induced by Spt5)” value [2] was “++ (++ >65%)” and the “effect on TNFα-induced levels” value [2] was “affected mainly the genes that were strongly induced by the TNFα treatment”.
For `CN(C)c1ccc(C2NCC(CSc3nc4ccccc4s3)O2)cc1` (centres unmarked) [SPI-85], the “effect on mutant” value (mutant (Q111) Htt) was “diminished mutant Htt expression”, the “Down-regulating transcription of Mutant Htt (i.e. inhibiting transcription elongation of mutant Htt gene induced by Spt5)” value (mutant (Q111) Htt) was “+” and the “classification by effect” value (Spt5 activities) was “little or no effect on basal and induced pro-inflammatory gene expression”. For the same molecule, the “classification by effect” value (Spt5 activities; listed as SPJ-85) was “a single activity as SPI inhibitors towards inhibiting transcription of Htt gene”.
With `COc1ccc(C2=NCC(CSc3nc4cc(Cl)ccc4o3)S2)cc1` (centres unmarked) [SPI-0324] the “effect on mutant” value (mutant (Q111) Htt) was “efficacy in selectively inhibiting transcription of Htt gene”.
`CSc1ccccc1NS(=O)(=O)c1ccc(-n2ncc(Cl)c(Cl)c2=O)cc1` [SPI-1477] was tested, and the “effect on mutant” value (mutant (Q111) Htt) was “efficacy in selectively inhibiting transcription of Htt gene”.
In the case of `CCc1ccccc1NS(=O)(=O)c1ccc(-n2ncccc2=O)cc1` [SPI-4516K, N-(2-ethylphenyl)-4-(6-oxopyridazin-1(6H)-yl)benzenesulfonamide], the “effect on mutant” value (mutant (Q111) Htt) is reported as “efficacy in selectively inhibiting transcription of Htt gene”.
With `OCc1ccc(-c2ccc(-c3cccs3)s2)s1` [SPI-8108] the “effect on mutant” value (mutant (Q111) Htt) was “efficacy in selectively inhibiting transcription of Htt gene”.
